Measured values reported in US8067586B2, “Fused heteroaryl derivatives” (Astellas Pharma Inc., priority 2000, dated 2011).

The compounds below were run against bovine p110α (Bos taurus, UniProt P32871) (assay: Inhibition of PI3K (p110α subtype)). Conditions: not given.
Assay type: biochemical

Sequence of bovine p110α (P32871 whole entry): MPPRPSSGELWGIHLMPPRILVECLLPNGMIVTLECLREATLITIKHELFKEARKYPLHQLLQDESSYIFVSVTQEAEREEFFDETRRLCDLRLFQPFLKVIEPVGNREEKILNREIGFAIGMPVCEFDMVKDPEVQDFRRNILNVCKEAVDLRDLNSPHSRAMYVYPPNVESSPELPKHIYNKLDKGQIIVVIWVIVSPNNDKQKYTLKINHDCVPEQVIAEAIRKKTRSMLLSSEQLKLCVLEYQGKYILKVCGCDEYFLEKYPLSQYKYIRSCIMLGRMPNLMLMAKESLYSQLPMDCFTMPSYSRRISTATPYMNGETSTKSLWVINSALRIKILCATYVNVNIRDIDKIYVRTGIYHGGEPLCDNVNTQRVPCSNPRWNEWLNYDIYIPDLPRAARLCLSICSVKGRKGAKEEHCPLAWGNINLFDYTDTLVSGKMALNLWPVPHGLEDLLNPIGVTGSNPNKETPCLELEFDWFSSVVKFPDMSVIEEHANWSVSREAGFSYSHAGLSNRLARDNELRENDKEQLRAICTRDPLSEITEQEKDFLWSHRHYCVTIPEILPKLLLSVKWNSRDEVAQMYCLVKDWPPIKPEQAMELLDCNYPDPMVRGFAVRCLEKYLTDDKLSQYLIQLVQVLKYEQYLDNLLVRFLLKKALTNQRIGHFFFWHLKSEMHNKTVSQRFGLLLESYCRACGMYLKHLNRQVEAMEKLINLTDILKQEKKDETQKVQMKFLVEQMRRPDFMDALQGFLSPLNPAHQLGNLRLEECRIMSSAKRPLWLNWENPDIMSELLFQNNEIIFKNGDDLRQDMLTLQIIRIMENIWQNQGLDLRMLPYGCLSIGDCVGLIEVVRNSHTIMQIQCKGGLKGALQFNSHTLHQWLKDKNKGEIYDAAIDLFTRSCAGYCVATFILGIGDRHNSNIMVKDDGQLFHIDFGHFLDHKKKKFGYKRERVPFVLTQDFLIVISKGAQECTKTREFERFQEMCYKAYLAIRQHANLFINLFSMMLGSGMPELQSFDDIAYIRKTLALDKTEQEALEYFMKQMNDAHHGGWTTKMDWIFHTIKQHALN

Structure (SMILES)	IC50 [nM]
Nc1ccc(C(=O)Nc2cccc(-c3nc(N4CCOCC4)c4oc5ncccc5c4n3)c2)cn1 [Co 17, 6-amino-3′-(4-morpholinopyrido[3′,2′:4,5]furo[3,2-d]pyrimidin-2-yl)nicotinanilide]	< 1000

Same assay, conditions: bovine p110α, 37° C. for 15 minutes; read-out: IC50, p110α subtype inhibition

Structure (SMILES)	IC50 [nM]
O=C(Nc1cccc(-c2nc(N3CCOCC3)c3oc4ncccc4c3n2)c1)c1ccccn1 [Co 10]	< 1000

The compounds below were run on A375 cells (assay: Melanoma cell growth inhibition (Alamar Blue)). Conditions: Homo sapiens, A-375, incubation for over 46 hours.
Assay type: cell-based
Method: A375 cells from a melanoma cell line were cultured in DMEM medium (GIBCO) supplemented with 10% fetal bovine serum. A375 cells at 10,000 cells/100 μl were added to a 96 well plate which contained 1 μl/well of the test compounds (final concentration of 0.001˜30 μM). After incubation for over 46 hours, Alamar Blue reagent was added to the medium (10 μl/well).

Structure (SMILES)	IC50 [nM]
Nc1ccc(-c2nc(N3CCOCC3)c3oc4ncccc4c3n2)cc1 [Co 33, 4-(4-morpholinopyrido[3′,2′:4,5]furo[3,2-d]pyrimidin-2-yl)aniline]	330 to 4260
Oc1cccc(-c2nc(N3CCOCC3)c3oc4ncccc4c3n2)c1 [Co 50, 3-(4-morpholinopyrido[3′,2′:4,5]furo[3,2-d]pyrimidin-2-yl)phenol]	330 to 4260
c1cc(OCCN2CCNCC2)cc(-c2nc(N3CCOCC3)c3oc4ncccc4c3n2)c1 [Co 69, 4-morpholino-2-[3-(2-piperazin-1-ylethoxy)phenyl]pyrido[3′,2′:4,5]furo[3,2-d]pyrimidine]	330 to 4260
Oc1cccc(-c2nc(N3CCOCC3)c3cnccc3n2)c1 [Co 164, 3-(4-morpholinopyrido[4,3-d]pyrimidin-2-yl)phenol]	330 to 4260
Oc1cccc(-c2nc(N3CCOCC3)c3ncccc3n2)c1 [Co 172, 3-(4-morpholinopyrido[3,2-d]pyrimidin-2-yl)phenol]	330 to 4260
Oc1cccc(-c2nc(N3CCOCC3)c3ccncc3n2)c1 [Co 174, 3-(4-morpholinopyrido[3,4-d]pyrimidin-2-yl)phenol]	330 to 4260
COc1ccc2nc(-c3cccc(O)c3)nc(N3CCOCC3)c2c1 [Co 186, 3-(6-methoxy-4-morpholinoquinazolin-2-yl)phenol]	330 to 4260
Oc1cccc(-c2nc(N3CCOCC3)c3sccc3n2)c1 [Co 190, 3-(4-morpholinothieno[3,2-d]pyrimidin-2-yl)phenol]	330 to 4260
Oc1cccc(-c2nc(N3CCOCC3)c3nccnc3n2)c1 [Co 191, 3-(4-morpholinopteridin-2-yl)phenol]	330 to 4260
